Results: patent publication US11266645B2, “Methods for treating lymphoma” (Alexion Pharmaceuticals, Inc., priority 2018, dated 2022)
Where two headings read alike, the source gives them in different places.

How the values were obtained:
[1] = test system: patients with relapsed or refractory PTCL; conditions: cited from earlier work; for ORR / CR / DOR: relapsed/refractory PTCL; for ORR: brentuximab only anaplastic large cell lymphoma
Primary CLL cells = Primary CLL cells with IL-4/CD40L, immunoblotting and annexin V/PI viability; type: cell-based, human; conditions: for IL-4/CD40L induced Mcl-1 and Bcl-XL expression: 1 μM
Experimental: Combination studies were performed with 10 or 100 nM venetoclax or 300 and 1000 nM S63846. Cell viability was assessed by annexin V/PI using flow cytometry and changes in protein expression by immunoblotting.

O=C(/C=C/c1cccc(S(=O)(=O)Nc2ccccc2)c1)NO [Belinostat]
Grade 3/4 AEs: Anemia ([1]; Table 1): Anemia: 11% | Grade 3/4 AEs: Fatigue ([1]; Table 1): Fatigue: 5% | Grade 3/4 AEs: Thrombocytopenia ([1]; Table 1): Thrombocytopenia: 7% | Toxicities ≥ Grade 3: Anemia ([1]; r/r PTCL, Table 2): 11% | Toxicities ≥ Grade 3: Asthenia/Fatigue ([1]; r/r PTCL, Table 2): 5% | Toxicities ≥ Grade 3: Infection ([1]; r/r PTCL, Table 2): 8.5%^ | Toxicities ≥ Grade 3: Pyrexia ([1]; r/r PTCL, Table 2): 2% | Toxicities ≥ Grade 3: Thrombocytopenia ([1]; r/r PTCL, Table 2): 7% | ORR [1]: ORR: 26% | ORR ([1]; listed as belinostat): approximately 25% | CR [1]: (11% CR) | DOR [1]: DOR: 8.4 months

Brentuximab
Grade 3/4 AEs: Neutropenia ([1]; Table 1): Neutropenia: 21% | Grade 3/4 AEs: Peripheral sensory neuropathy ([1]; Table 1): Peripheral sensory neuropathy: 10% | Grade 3/4 AEs: Thrombocytopenia ([1]; Table 1): Thrombocytopenia: 10% | Toxicities ≥ Grade 3: Anemia ([1]; r/r PTCL, Table 2): 2% | Toxicities ≥ Grade 3: Asthenia/Fatigue ([1]; r/r PTCL, Table 2): 4% | Toxicities ≥ Grade 3: Diarrhea/Colitis ([1]; r/r PTCL, Table 2): 3% | Toxicities ≥ Grade 3: Neutropenia ([1]; r/r PTCL, Table 2): 21% | Toxicities ≥ Grade 3: Pyrexia ([1]; r/r PTCL, Table 2): 2% | Toxicities ≥ Grade 3: Thrombocytopenia ([1]; r/r PTCL, Table 2): 10% | ORR [1]: ORR: 86% | CR [1]: (57% CR) | DOR [1]: DOR: 12.6 months

c1cn2cc(-c3ccc4cn[nH]c4c3)nc(Nc3ccc(N4CCOCC4)cc3)c2n1 [entospletinib, reference compound]
IL-4/CD40L induced Mcl-1 and Bcl-XL expression (Primary CLL cells): significantly reduced

C#CCC(Cc1cnc2nc(N)nc(N)c2n1)c1ccc(C(=O)N[C@@H](CCC(=O)O)C(=O)O)cc1 (some centres unmarked) [Pralatrexate]
Grade 3/4 AEs: Anemia ([1]; Table 1): Anemia: 17% | Grade 3/4 AEs: Fatigue ([1]; Table 1): Fatigue: 7% | Grade 3/4 AEs: Mucositis ([1]; Table 1): Mucositis: 21% | Grade 3/4 AEs: Neutropenia ([1]; Table 1): Neutropenia: 20% | Grade 3/4 AEs: Thrombocytopenia ([1]; Table 1): Thrombocytopenia: 33% | Toxicities ≥ Grade 3: Anemia ([1]; r/r PTCL, Table 2): 17% | Toxicities ≥ Grade 3: Asthenia/Fatigue ([1]; r/r PTCL, Table 2): 8% | Toxicities ≥ Grade 3: Leukopenia ([1]; r/r PTCL, Table 2): 7% | Toxicities ≥ Grade 3: Mucositis ([1]; r/r PTCL, Table 2): 23% | Toxicities ≥ Grade 3: Neutropenia ([1]; r/r PTCL, Table 2): 20% | Toxicities ≥ Grade 3: Pyrexia ([1]; r/r PTCL, Table 2): 2% | Toxicities ≥ Grade 3: Sepsis ([1]; r/r PTCL, Table 2): 5% | Toxicities ≥ Grade 3: Thrombocytopenia ([1]; r/r PTCL, Table 2): 33% | ORR [1]: ORR: 27% | ORR ([1]; listed as pralatrexate): approximately 25% | CR [1]: (6% CR) | DOR [1]: DOR: 9.4 months

C/C=C1\NC(=O)[C@H]2CSSCC/C=C/[C@H](CC(=O)N[C@H](C(C)C)C(=O)N2)OC(=O)[C@H](C(C)C)NC1=O [Romidepsin]
Grade 3/4 AEs: Fatigue ([1]; Table 1): Fatigue: 13% | Grade 3/4 AEs: Nausea ([1]; Table 1): Nausea: 4% | Grade 3/4 AEs: Thrombocytopenia ([1]; Table 1): Thrombocytopenia: 21% | Toxicities ≥ Grade 3: Anemia ([1]; r/r PTCL, Table 2): 11-28% | Toxicities ≥ Grade 3: Asthenia/Fatigue ([1]; r/r PTCL, Table 2): 8-19% | Toxicities ≥ Grade 3: Infection ([1]; r/r PTCL, Table 2): 19% | Toxicities ≥ Grade 3: Leukopenia ([1]; r/r PTCL, Table 2): 6-45% | Toxicities ≥ Grade 3: Neutropenia ([1]; r/r PTCL, Table 2): 20-47% | Toxicities ≥ Grade 3: Pyrexia ([1]; r/r PTCL, Table 2): 6-17% | Toxicities ≥ Grade 3: Sepsis ([1]; r/r PTCL, Table 2): 5% | Toxicities ≥ Grade 3: Thrombocytopenia ([1]; r/r PTCL, Table 2): 24-36%

NC(=O)c1cnc(N[C@@H]2CCCC[C@@H]2N)nc1Nc1cccc(-n2nccn2)c1 [PRT062607, reference compound]
IL-4/CD40L induced Mcl-1 and Bcl-XL expression (Primary CLL cells): significantly reduced

Cc1c(-c2c(-c3ccc(F)o3)sc3ncnc(O[C@H](Cc4ccccc4OCc4ccnn4CC(F)(F)F)C(=O)O)c23)ccc(OCCN2CCN(C)CC2)c1Cl [S63845, reference compound]
synergy with BCR kinase inhibitors including cerdulatinib, CLL cell death (Primary CLL cells; CLL cells): synergized

CC[C@H](Nc1ncnc2[nH]cnc12)c1nc2cccc(F)c2c(=O)n1-c1ccccc1 [idelalisib, reference compound]
IL-4/CD40L induced Mcl-1 and Bcl-XL expression (Primary CLL cells): significantly reduced
